Target: α7 nAChR subtype (Rattus norvegicus, UniProt Q05941)
Type: binding
Conditions: read-out: KD of radioligand (saturation curve, one site model)

α7 nAChR subtype, sequence (Q05941 23-502 limits assumed): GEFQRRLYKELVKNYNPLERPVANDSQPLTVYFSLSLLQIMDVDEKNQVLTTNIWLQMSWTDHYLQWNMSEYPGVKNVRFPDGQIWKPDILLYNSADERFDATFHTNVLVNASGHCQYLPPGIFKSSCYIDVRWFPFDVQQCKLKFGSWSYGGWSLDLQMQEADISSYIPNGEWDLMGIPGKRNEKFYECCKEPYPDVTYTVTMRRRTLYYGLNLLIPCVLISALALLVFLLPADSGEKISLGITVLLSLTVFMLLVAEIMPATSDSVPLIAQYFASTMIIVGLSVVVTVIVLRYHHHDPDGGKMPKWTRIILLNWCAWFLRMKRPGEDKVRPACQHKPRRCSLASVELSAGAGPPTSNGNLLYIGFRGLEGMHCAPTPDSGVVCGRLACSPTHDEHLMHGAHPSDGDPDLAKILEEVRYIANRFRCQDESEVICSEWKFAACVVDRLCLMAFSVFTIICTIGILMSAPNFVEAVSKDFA

Substance: [^125I]-α-Bungarotoxin [[^125I]-α-BTX]
- Kd: 1.67 nM

— patent US7482338B2 (priority 2003, dated 2009)
